Data as given in US9351955B2, “Compounds and pharmaceutical compositions thereof for the treatment of cystic fibrosis” (Galapagos NV, priority 2013, dated 2016).
Read-outs that look alike come from different tables or passages of the source.

Legend:
Assay type in all cases: cell-based
CFTR ΔF508 mutant [1] = target: T1, CFTR ΔF508 mutant (Homo sapiens, UniProt P13569, DEL508-508); assay: YFP-halide influx assay for the CFTR-ΔF508 mutation (96 well, CFBE41o- cells); conditions: read-out: EC50 measured by YFP-halide influx assay for the CFTR-ΔF508
T1 construct: expressed in transfected cells; host or cells: CFBE41o- (adenoviral transduction)
Text: 6.1. YFP-Halide Influx Assay for the CFTR-ΔF508 Mutation
(§1) The YFP halide influx assay measures the functionality of the cystic fibrosis Transmembrane Conductance regulator (CFTR) channels in the cystic fibrosis bronchial epithelium cell line CFBE41o-. The assay is used to evaluate the capacity of compounds to increase the open probability of existing CFTR channels in the membrane. It makes use of the observation that the yellow fluorescent protein (YFP) variant YFP H148Q, I152L has its fluorescence substantially quenched by halide ions like Cl^− and I^−. (Galietta et al., 2001; Nagai et al., 2002)
For this purpose, CFBE410-cells are seeded in 96 well plates (6000 CFBE cells/well). One day after seeding, the CFBE cells are transduced with adenoviral vectors that direct the expression of the CFTR ΔF508 mutant and of the YFP reporter. Cells are incubated at 27° C., 5% CO2 for 24 hours so as to allow for the proper folding and migration to the membrane of the CFTR channel or treated with a CFTR modulator during 24 h at 37° C.
(§2) The F induced quenching of fluorescence is recorded immediately after injection of I^− for 7 seconds. The capacity of a compound to increase the channel opening is directly correlated with the decrease in fluorescence, and is expressed as (1-(fluorescence after 7 seconds (F)/fluorescence before injection (F0))) and an EC50 can be derived from a (1−F/F0) vs compound concentration plot.

CFTR ΔF508 mutant [2] = target: T1, CFTR ΔF508 mutant; assay: YFP-halide influx assay for the CFTR-ΔF508 mutation (384 well, CFBE41o- cells, FDSS/μCell); conditions: forskolin 10.67 μM, fluorescence after 36 seconds, read-out: EC50 measured by YFP-halide influx assay for the CFTR-ΔF508
Method in brief: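 CFBE41o- cells were adenovirally transduced with ΔF508 CFTR and the YFP H148Q/I152L reporter. Cells were then held 24 h at 27 °C or treated 24 h at 37 °C with a CFTR modulator. Iodide-induced quench was recorded for 2 min, and EC50 was derived from 1−F/F0 at 36 s against compound concentration.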

CFTR G551D mutant = target: T2, CFTR G551D mutant (Homo sapiens, UniProt P13569, G551D); assay: YFP-halide influx assay for the CFTR-G551D mutation (HEK293 cells); conditions: read-out: EC50 measured by YFP-halide influx assay for the CFTR-G551D
T2 construct: expressed in transfected cells; host or cells: HEK293 (reverse transfection with plasmids)
Text: 6.3. YFP-Halide Influx Assay for the CFTR-G551D Mutation
as §1, with “channels.” for “channels in the cystic fibrosis bronchial epithelium cell line CFBE41o-.”, “channel opening” for “open probability”, “existing mutant” for “existing”, “I152L, F47L” for “I152L”, “2001)” for “2001; Nagai et al., 2002)”
For this purpose, HEK293-cells are seeded in 96 well plates. During seeding, the cells are reverse-transfected with plasmid vectors that direct the expression of the CFTR G551D mutant and of the YFP reporter. Cells are incubated at 37° C., 5% CO2 for 24 hours so as to allow for sufficient expression of the CFTR protein.
as §2, with “I^−-induced” for “F induced”, “(1−(fluorescence” for “(1-(fluorescence”

[3] = compounds of the invention, 96 well, forskolin 10.67 μM
[4] = HEK293 cells expressing CFTR G551D and YFP reporter, forskolin 10.67 μM

T2 sequence (P13569 whole entry G551D): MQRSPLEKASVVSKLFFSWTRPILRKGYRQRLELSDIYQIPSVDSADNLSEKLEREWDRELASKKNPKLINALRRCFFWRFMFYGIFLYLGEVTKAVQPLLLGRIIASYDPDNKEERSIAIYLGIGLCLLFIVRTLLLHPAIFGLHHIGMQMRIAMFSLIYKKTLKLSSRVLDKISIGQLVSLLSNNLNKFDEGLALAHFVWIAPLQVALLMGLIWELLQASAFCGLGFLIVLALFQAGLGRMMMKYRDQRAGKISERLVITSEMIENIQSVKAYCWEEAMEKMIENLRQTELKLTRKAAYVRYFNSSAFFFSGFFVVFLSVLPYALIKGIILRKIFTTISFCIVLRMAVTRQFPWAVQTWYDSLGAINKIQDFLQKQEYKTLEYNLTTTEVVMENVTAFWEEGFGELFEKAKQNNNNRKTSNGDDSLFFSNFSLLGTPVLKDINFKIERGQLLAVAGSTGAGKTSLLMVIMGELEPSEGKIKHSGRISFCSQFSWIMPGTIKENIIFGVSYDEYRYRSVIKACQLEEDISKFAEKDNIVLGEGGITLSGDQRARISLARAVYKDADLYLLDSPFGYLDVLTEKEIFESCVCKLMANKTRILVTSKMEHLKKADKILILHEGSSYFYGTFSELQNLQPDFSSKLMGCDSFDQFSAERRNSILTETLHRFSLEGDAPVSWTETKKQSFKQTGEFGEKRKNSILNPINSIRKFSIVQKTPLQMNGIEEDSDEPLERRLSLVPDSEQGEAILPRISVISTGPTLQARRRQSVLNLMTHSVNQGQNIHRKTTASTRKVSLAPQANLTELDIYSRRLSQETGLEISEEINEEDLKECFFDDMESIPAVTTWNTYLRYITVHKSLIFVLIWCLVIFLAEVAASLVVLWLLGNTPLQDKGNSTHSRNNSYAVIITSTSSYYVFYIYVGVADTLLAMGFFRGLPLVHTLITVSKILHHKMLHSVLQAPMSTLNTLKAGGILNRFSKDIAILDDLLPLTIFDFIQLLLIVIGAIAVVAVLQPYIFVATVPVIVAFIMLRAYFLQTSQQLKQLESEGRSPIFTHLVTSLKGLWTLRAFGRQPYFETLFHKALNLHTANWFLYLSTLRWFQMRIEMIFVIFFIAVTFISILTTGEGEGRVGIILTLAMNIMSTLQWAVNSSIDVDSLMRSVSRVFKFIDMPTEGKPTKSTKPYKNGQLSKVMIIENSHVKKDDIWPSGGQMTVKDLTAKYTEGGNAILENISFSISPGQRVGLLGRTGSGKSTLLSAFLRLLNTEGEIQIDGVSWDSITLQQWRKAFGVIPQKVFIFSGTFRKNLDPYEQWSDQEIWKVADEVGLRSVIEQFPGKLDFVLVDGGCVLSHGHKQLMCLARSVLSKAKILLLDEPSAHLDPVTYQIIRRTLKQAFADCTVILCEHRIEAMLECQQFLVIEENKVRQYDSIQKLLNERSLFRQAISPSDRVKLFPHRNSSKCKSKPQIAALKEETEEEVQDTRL
T1 sequence (P13569 with tags, fused parts or gaps DEL508-508): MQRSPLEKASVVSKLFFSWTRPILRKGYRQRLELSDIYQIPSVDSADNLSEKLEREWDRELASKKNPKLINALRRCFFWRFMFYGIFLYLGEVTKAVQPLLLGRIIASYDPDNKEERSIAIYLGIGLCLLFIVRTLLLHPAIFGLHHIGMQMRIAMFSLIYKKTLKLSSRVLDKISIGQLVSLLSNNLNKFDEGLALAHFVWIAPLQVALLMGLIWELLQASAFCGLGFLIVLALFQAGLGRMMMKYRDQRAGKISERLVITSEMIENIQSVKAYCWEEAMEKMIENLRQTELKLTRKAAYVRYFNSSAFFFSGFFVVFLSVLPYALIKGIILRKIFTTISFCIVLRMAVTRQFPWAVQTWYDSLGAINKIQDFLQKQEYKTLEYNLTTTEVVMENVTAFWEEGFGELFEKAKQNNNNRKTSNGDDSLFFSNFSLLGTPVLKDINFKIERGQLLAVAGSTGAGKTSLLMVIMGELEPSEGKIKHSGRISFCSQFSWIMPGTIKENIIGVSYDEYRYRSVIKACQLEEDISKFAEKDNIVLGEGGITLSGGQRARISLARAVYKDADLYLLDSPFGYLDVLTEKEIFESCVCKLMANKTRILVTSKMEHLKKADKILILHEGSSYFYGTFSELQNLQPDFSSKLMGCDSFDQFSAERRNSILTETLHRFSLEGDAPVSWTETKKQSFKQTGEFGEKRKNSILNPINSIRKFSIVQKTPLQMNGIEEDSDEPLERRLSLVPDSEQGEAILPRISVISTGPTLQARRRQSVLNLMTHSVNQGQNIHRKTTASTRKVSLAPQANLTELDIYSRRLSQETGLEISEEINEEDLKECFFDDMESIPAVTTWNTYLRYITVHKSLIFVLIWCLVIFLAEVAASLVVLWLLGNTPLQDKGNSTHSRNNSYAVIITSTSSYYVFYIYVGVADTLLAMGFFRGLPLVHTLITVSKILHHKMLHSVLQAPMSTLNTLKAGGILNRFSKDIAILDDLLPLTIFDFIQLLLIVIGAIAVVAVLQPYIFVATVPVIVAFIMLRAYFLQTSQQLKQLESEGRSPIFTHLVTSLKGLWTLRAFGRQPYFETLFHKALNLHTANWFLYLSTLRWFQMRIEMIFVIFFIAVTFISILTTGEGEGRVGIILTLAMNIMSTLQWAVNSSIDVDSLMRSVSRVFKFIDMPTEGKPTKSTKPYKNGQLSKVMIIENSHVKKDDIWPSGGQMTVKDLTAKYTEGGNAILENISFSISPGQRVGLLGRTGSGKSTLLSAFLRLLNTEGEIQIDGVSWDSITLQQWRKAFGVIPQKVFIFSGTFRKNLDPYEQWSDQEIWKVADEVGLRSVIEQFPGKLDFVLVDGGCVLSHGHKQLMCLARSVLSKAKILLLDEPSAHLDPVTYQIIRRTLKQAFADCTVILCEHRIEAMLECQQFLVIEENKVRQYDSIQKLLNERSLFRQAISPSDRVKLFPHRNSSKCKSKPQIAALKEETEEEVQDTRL

EC50 (CFTR ΔF508 mutant [1]; comparative compounds) [nM]	EC50 (CFTR ΔF508 mutant [1]; [3]) [nM]	EC50 (CFTR ΔF508 mutant [2]) [nM]	EC50 (CFTR G551D mutant; [4]) [nM]	EC50 (CFTR G551D mutant; comparative compounds, HEK293 cells) [nM]	SMILES
> 10000					NC(=O)c1c(NC(=O)c2ccccc2O)sc2c1CCNC2 [C, 2-(2-hydroxybenzamido)-4,5,6,7-tetrahydrothieno[2,3-c]pyridine-3-carboxamide, reference compound]
	12.2	65.6	282		CC1(C)Cc2c(sc(NC(=O)c3ccccc3F)c2C(N)=O)C(C)(C)O1 [Compound 1, 2-(2-fluorobenzamido)-5,5,7,7-tetramethyl-5,7-dihydro-4H-thieno[2,3-c]pyran-3-carboxamide]
	4.4	6.46	162		CC1(C)Cc2c(sc(NC(=O)c3ccccc3O)c2C(N)=O)C(C)(C)O1 [Compound 3, 2-(2-hydroxybenzamido)-5,5,7,7-tetramethyl-5,7-dihydro-4H-thieno[2,3-c]pyran-3-carboxamide]
	63.4	47.8	764		CC1(C)Cc2c(sc(NC(=O)c3ccccc3C(F)(F)F)c2C(N)=O)C(C)(C)O1 [Compound 5, 5,5,7,7-tetramethyl-2-(2-(trifluoromethyl)benzamido)-5,7-dihydro-4H-thieno[2,3-c]pyran-3-carboxamide]
	60.2	70.3	1090		CC1(C)Cc2c(sc(NC(=O)c3ccc(F)cc3C(F)(F)F)c2C(N)=O)C(C)(C)O1 [Compound 7, 2-(4-fluoro-2-(trifluoromethyl)benzamido)-5,5,7,7-tetramethyl-5,7-dihydro-4H-thieno[2,3-c]pyran-3-carboxamide]
	22.8	27.3	308		CC1(C)Cc2c(sc(NC(=O)c3ccc(F)cc3F)c2C(N)=O)C(C)(C)O1 [Compound 8, 2-(2,4-difluorobenzamido)-5,5,7,7-tetramethyl-5,7-dihydro-4H-thieno[2,3-c]pyran-3-carboxamide]
	27.2	12.6	590		Cc1cc(C(=O)Nc2sc3c(c2C(N)=O)CC(C)(C)OC3(C)C)[nH]n1 [Compound 11, N-(3-carbamoyl-5,5,7,7-tetramethyl-5,7-dihydro-4H-thieno[2,3-c]pyran-2-yl)-5-methyl-1H-pyrazole-3-carboxamide]
	952	197	3330		COC(=O)C1(C(=O)Nc2sc3c(c2C(N)=O)CC(C)(C)OC3(C)C)CC1 [Compound 12, methyl 1-(3-carbamoyl-5,5,7,7-tetramethyl-5,7-dihydro-4H-thieno[2,3-c]pyran-2-ylcarbamoyl)cyclopropanecarboxylate]
	25.3	90.8	5250		CC1(C)Cc2c(sc(NC(=O)c3cc(C(C)(C)C)[nH]n3)c2C(N)=O)C(C)(C)O1 [Compound 16, 5-tert-butyl-N-(3-carbamoyl-5,5,7,7-tetramethyl-5,7-dihydro-4H-thieno[2,3-c]pyran-2-yl)-1H-pyrazole-3-carboxamide]
	829	467	3330		CC1(C)Cc2c(sc(NC(=O)c3nnc[nH]3)c2C(N)=O)C(C)(C)O1 [Compound 18, N-(3-carbamoyl-5,5,7,7-tetramethyl-5,7-dihydro-4H-thieno[2,3-c]pyran-2-yl)-1H-1,2,4-triazole-3-carboxamide]
	41.8	7.33	357		CCc1n[nH]c(C(=O)Nc2sc3c(c2C(N)=O)CC(C)(C)OC3(C)C)c1C [Compound 19, N-(3-carbamoyl-5,5,7,7-tetramethyl-5,7-dihydro-4H-thieno[2,3-c]pyran-2-yl)-3-ethyl-4-methyl-1H-pyrazole-5-carboxamide]
	219	83			CC(O)C(=O)Nc1sc2c(c1C(N)=O)CC(C)(C)OC2(C)C (centres unmarked) [Compound 22, 2-(2-hydroxypropanamido)-5,5,7,7-tetramethyl-5,7-dihydro-4H-thieno[2,3-c]pyran-3-carboxamide]
	314	234			CC1(C)Cc2c(sc(NC(=O)c3cccc(F)n3)c2C(N)=O)C(C)(C)O1 [Compound 24, N-(3-carbamoyl-5,5,7,7-tetramethyl-5,7-dihydro-4H-thieno[2,3-c]pyran-2-yl)-6-fluoropicolinamide]
	1270				CC1(C)Cc2c(sc(NC(=O)c3ccccc3-c3ncn[nH]3)c2C(N)=O)C(C)(C)O1 [Compound 26, 2-(2-(1H-1,2,4-triazol-5-yl)benzamido)-5,5,7,7-tetramethyl-5,7-dihydro-4H-thieno[2,3-c]pyran-3-carboxamide]
	10000				CC1(C)Cc2c(sc(NC(=O)C3CNC(=O)C3)c2C(N)=O)C(C)(C)O1 (centres unmarked) [Compound 29, N-(3-carbamoyl-5,5,7,7-tetramethyl-5,7-dihydro-4H-thieno[2,3-c]pyran-2-yl)-5-oxopyrrolidine-3-carboxamide]
	354	354			CN1CCc2[nH]nc(C(=O)Nc3sc4c(c3C(N)=O)CC(C)(C)OC4(C)C)c2C1 [Compound 31, N-(3-carbamoyl-5,5,7,7-tetramethyl-5,7-dihydro-4H-thieno[2,3-c]pyran-2-yl)-5-methyl-4,5,6,7-tetrahydro-1H-pyrazolo[4,3-c]pyridine-3-carboxamide]
	1740	602			CC(=O)OC1(C(=O)Nc2sc3c(c2C(N)=O)CC(C)(C)OC3(C)C)CCOCC1 [Compound 41, 4-(3-carbamoyl-5,5,7,7-tetramethyl-5,7-dihydro-4H-thieno[2,3-c]pyran-2-ylcarbamoyl)tetrahydro-2H-pyran-4-yl acetate]
		128	2660		Cn1ncc(C(=O)Nc2sc3c(c2C(N)=O)CC(C)(C)OC3(C)C)c1C(F)(F)F [Compound 137, N-(3-carbamoyl-5,5,7,7-tetramethyl-4H-thieno[2,3-c]pyran-2-yl)-1-methyl-5-(trifluoromethyl)pyrazole-4-carboxamide]
		57	577		CCCCc1ccc(C(=O)Nc2sc3c(c2C(N)=O)CC(C)(C)OC3(C)C)c(=O)[nH]1 [Compound 139, 6-butyl-N-(3-carbamoyl-5,5,7,7-tetramethyl-4H-thieno[2,3-c]pyran-2-yl)-2-oxo-1H-pyridine-3-carboxamide]
		99.5	1620		Cc1cnc(C(=O)Nc2sc3c(c2C(N)=O)CC(C)(C)OC3(C)C)cn1 [Compound 141, N-(3-carbamoyl-5,5,7,7-tetramethyl-4H-thieno[2,3-c]pyran-2-yl)-5-methyl-pyrazine-2-carboxamide]
		153	2710		Cc1ccc(C(=O)Nc2sc3c(c2C(N)=O)CC(C)(C)OC3(C)C)cn1 [Compound 143, N-(3-carbamoyl-5,5,7,7-tetramethyl-4H-thieno[2,3-c]pyran-2-yl)-6-methyl-pyridine-3-carboxamide]
		12	2160		CC1(C)Cc2c(sc(NC(=O)[C@](C)(O)C(F)(F)F)c2C(N)=O)C(C)(C)O1 [Compound 152, 5,5,7,7-tetramethyl-2-[[(2S)-3,3,3-trifluoro-2-hydroxy-2-methyl-propanoyl]amino]-4H-thieno[2,3-c]pyran-3-carboxamide]
156				> 10000	NC(=O)c1c(NC(=O)c2ccccc2O)sc2c1CCOC2 [D, 2-(2-hydroxybenzamido)-5,7-dihydro-4H-thieno[2,3-c]pyran-3-carboxamide, reference compound]
